Results: ChEMBL document CHEMBL3585338, “2-Hydroxy-3,4-naphthochalcone (2H-NC) inhibits TNFα-induced tumor invasion through the downregulation of NF-κB-mediated MMP-9 gene expression” (Bioorg Med Chem Lett, 2014)
Calls of active or inactive are those of the source. No cut-off for these calls is given here.

Assays:
Type in all cases: cell-based
[1] = biological target: Inhibitor of NF-kappa-B kinase alpha/beta (Homo sapiens) (UniProt O14920+O15111); experiment: Inhibition of TNF-alpha-induced IKKalpha/beta phosphorylation at Ser176/180 in human MDA-MB-231 cells after 20 mins by immunoblot analysis
[2] = biological target: Transcription factor p65 (Homo sapiens) (UniProt Q04206); experiment: Inhibition of TNF-alpha-induced Rel-A phosphorylation at Ser536 in human MDA-MB-231 cells after 60 mins by immunoblot analysis
[3] = biological target: Transcription factor p65 (Homo sapiens) (UniProt Q04206); experiment: Inhibition of TNF-alpha-induced Rel-A nuclear translocation in human MDA-MB-231 cells assessed as decrease in Rel-A phoshorylation at Ser536 at 20 uM pretreated for 30 mins prior to TNF-alpha stimulation measured after 60 mins by immunofluorescence microscopic analysis

Chain of Transcription factor p65 (Homo sapiens) (Q04206 whole entry): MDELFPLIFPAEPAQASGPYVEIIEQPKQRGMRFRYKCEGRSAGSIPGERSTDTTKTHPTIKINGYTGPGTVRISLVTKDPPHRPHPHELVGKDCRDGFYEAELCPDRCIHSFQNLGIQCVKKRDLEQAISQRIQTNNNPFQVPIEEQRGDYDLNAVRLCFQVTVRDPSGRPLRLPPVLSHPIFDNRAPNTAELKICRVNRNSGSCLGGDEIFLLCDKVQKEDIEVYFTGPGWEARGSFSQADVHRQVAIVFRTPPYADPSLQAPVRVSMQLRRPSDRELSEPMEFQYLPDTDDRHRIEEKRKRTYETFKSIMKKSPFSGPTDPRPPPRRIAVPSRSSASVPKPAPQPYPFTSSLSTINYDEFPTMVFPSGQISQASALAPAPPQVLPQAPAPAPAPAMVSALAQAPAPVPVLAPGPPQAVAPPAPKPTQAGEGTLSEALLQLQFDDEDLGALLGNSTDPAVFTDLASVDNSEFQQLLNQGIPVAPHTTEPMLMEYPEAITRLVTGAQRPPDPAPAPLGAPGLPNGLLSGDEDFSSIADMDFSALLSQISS

inhibition [1]: Dose-dependent effect
inhibition [2]: Dose-dependent effect
inhibition [3]: Active
Structure (SMILES): O=C(/C=C/c1ccccc1)c1ccc2ccccc2c1O
